# Test results: patent US20030083250A1, “Anti-tumor chemotherapy by administration of cyclophosphamide and erythropoeitin” (priority 2001, published 2003)
# “Also recorded” adds a separate entry of the source.
# Assays:
# [1] = test system: FSaIIC Murine Fibrosarcoma; settings: experimental sarcomas of mice; cited from earlier work
# DS-sarcoma = assay: Growth of subcutaneous DS-sarcomas in rats (tumor volume, volume doubling time, growth delay after cyclophosphamide); assay type: in vivo, rat; settings: for volume doubling time during the regrowth period: after cyclophosphamide; for growth delay following chemotherapy: at the 1.3 ml tumor volume level, cyclophosphamide 60 mg/kg i.p. Day 5; for volume doubling time / impact on tumor growth rate per se: tumors not treated with cyclophosphamide; for impact on tumor growth rate per se: carboplatin four days before implantation, rHuEPO 1000 IU/kg three times per week
# Experimental: (§1) Male Sprague-Dawley rats (Charles River Wiga, Sulzfeld, Germany; body weight 100 to 160 g) housed in our animal care facility were used in the study. Animals were allowed access to food and acidified water ad libitum before and throughout the investigation. All experiments had previously been approved by the regional animal ethics committee and were conducted in accordance with the German Law for Animal Protection and the UKCCCR Guidelines [United Kingdom Coordinating Committee on Cancer Research (UKCCCR) guidelines for the welfare of animals in experimental neoplasia (2 nd edit). Br. J. Cancer, (1998) 77:1-10].
# Solid DS-sarcomas were induced by injecting DS-sarcoma cells (0.4 ml approximately 10^4 cells/μl) subcutaneously into the hind food dorsum. […] Tumor volumes were determined by measuring the three orthogonal diameters of the tumor and using an ellipsoid approximation with the formula: V=d1×d2×d3×π/6. From the volume growth curves the volume doubling time was calculated during exponential tumor growth.
# (§2) Prolonged anemia was induced by a single injection of carboplatin (Sigma-Aldrich, Steinheim, Germany) at a dose of 50 mg/kg body weight (dissolved in isotonic saline at a concentration of 20 mg/ml) into the tail vein four days before tumor implantation.
# (§3) Recombinant human erythropoietin (epoetin alpha, ERYPO 4000®; Janssen-Cilag, Neuss, Germany) in isotonic NaCl solution was administered (1000 IU/kg) three times per week over sixteen days by s.c. injection starting eleven days before tumor implantation. Control animals received equivalent volumes of the solvent (0.5 ml/ kg).
# Animals treated with equivalent volumes of the solvent (isotonic saline 6 ml/kg) served as controls.
# Group 1 (non-anemic): Animals received cyclophosphamide on Day 5 after tumor implantation.
# Group 2 (anemic): Animals treated for four days before tumor implantation with carboplatin for anemia induction. Cyclophosphamide was administered on Day 5 after implantation.
# Group 3 (anemic, rHuEPO-treated): Animals treated with rHuEPO three times per week from eleven days before tumor implantation and up until the day of cyclophosphamide application. Carboplatin (for anemia induction) was administered on Day −4 and cyclophosphamide was applied on Day 5.
# Controls for all three experimental groups received equivalent volumes of the solvent instead of cyclophosphamide on Day 5 after tumor implantation.
# (§4) Results are expressed as means±standard error of the mean (SEM). Differences between the groups were assessed by the two-tailed Wilcoxon test for unpaired samples. The significance level was set at α=5% for all comparisons. For characterizing the effect of chemotherapy on tumor growth, the growth delay induced by cyclophosphamide was calculated.
# Male Sprague-Dawley rats = assay: Blood cell parameters (automated hematology analyzer) in rats with carboplatin-induced anemia, with or without rHuEPO; assay type: in vivo, rat; settings: for CHb (hemoglobin concentration): day of cyclophosphamide treatment (Day 5 after tumor implantation), carboplatin 50 mg/kg i.v. on Day -4, rHuEPO 1000 IU/kg s.c. three times per week
# Experimental: as §1, §2, §3
# Besides tumor growth, blood cell parameters were assessed using a multi-parameter, automated hematology analyzer (Ac-T8; Beckman-Coulter, Krefeld, Germany) whereby erythrocyte, white blood cell and platelet counts together with the mean cell volume (MCV) were measured by an impedance technique and the hemoglobin concentration by a photometric method. In addition, the analyzer uses the measured values to calculate several other parameters (e.g., hematocrit, mean corpuscular hemoglobin content [MCH] and mean corpuscular hemoglobin concentration [MCHC]). All measurements were performed using a sample of venous blood (20 μl) taken from a tail vein.
# as §4
# experimental tumors = settings: after correcting anemia; 76% in moderate anemia, 21% before; cited from earlier work
# experimental tumours = settings: in vivo; cited from earlier work
# anemic cancer patients = settings: 150 IU/kg t.i.w. vs placebo; after the first month of therapy; platinum or non-platinum chemotherapy; cited from earlier work
# [2] = test system: human ovarian cancer xenographs; settings: EPO alone (control group); cited from earlier work
# [3] = day of cyclophosphamide treatment, mean ± SEM
compound,measurement,setting,value
O=P1(N(CCCl)CCCl)NCCCO1 (stereo not drawn) [cyclophosphamide],cell kill in oxygenated versus hypoxic tumor areas,[1],more pronounced cell kill
same,volume doubling time during the regrowth period,DS-sarcoma; anemic group,4.0 days
same,volume doubling time during the regrowth period,DS-sarcoma; non-anemic group,4.6 days
same,growth delay following chemotherapy,DS-sarcoma; anemic (carboplatin) group,8.6 days
same,growth delay following chemotherapy,DS-sarcoma; non-anemic group,approximately 13.3 days
same,growth delay,"DS-sarcoma; single dose 60 mg/kg i.p., stated in the methods, not curative",approximately eight to ten
N.N.O=C([O-])C1(C(=O)[O-])CCC1.[Pt+2] [carboplatin],cell kill in oxygenated versus hypoxic tumor areas,[1],more pronounced cell kill
same,volume doubling time,DS-sarcoma,approximately 1.8 days
same,impact on tumor growth rate per se,DS-sarcoma,does not affect the growth of DS sarcomas; also recorded: no impact per se on the growth rate of the tumors; also recorded: no effect on the growth rate of DS-sarcomas
same,CHb (hemoglobin concentration),Male Sprague-Dawley rats; mean ± SEM,98 g/L
same,CHb (hemoglobin concentration),"Male Sprague-Dawley rats; mean ± SEM, listed as CARBOPLATIN",98 ± 3 g/L
same,Hematocrit,Male Sprague-Dawley rats; [3],28 ± 1%
same,Mean Corpuscular Hb Concentration (MCHC),Male Sprague-Dawley rats; [3],348 ± 5 g/L
same,Mean Corpuscular Hemoglobin (MCH),Male Sprague-Dawley rats; [3],22 ± 1 pg
same,Mean Corpuscular Volume (MCV),Male Sprague-Dawley rats; [3],63 ± 1 fL
same,RBC count,Male Sprague-Dawley rats; [3],4.5 ± 0.2 10^6/μl
same,mean cHb,"Male Sprague-Dawley rats; nine days after a single dose of carboplatin 50 mg/kg i.v., start approximately 130 g/l",about 100 g/l
N[C@@H](Cc1ccc(N(CCCl)CCCl)cc1)C(=O)O [melphalan],cell kill in oxygenated versus hypoxic tumor areas,[1],more pronounced cell kill
"rHuEPO: Recombinant human erythropoietin (epoetin alpha, ERYPO 4000; Janssen-Cilag)",fraction of hypoxic pO2 values ≦2.5 mmHg,experimental tumors,55%
same,effect of correction of anemia on radiosensitivity,experimental tumours,able to improve the radiosensitivity
same,effect on hematocrit and transfusion requirements,anemic cancer patients,increase hematocrit and decrease transfusion requirements
same,effect of reversing anemia on cytotoxicity of cyclophosphamide chemotherapy,"DS-sarcoma; DS sarcomas, anemia cHb=98 g/l",significantly increases the cytotoxicity of this chemotherapy
same,volume doubling time during the regrowth period,DS-sarcoma; rHuEPO-treated animals,4.3 days
same,growth delay following chemotherapy,DS-sarcoma; rHuEPO-treated group (carboplatin + rHuEPO),approximately 13.3 days
same,volume doubling time,DS-sarcoma,approximately 1.8 days
same,impact on tumor growth rate per se,DS-sarcoma,no impact per se on the growth rate of the tumors; also recorded: no impact on the tumor growth per se
same,cHb,"Male Sprague-Dawley rats; continuous rHuEPO treatment in otherwise untreated rats, within one week",153 g/L
same,CHb (hemoglobin concentration),Male Sprague-Dawley rats; mean ± SEM,137 g/L
same,effect on carboplatin-induced anemia at the time of chemotherapy,Male Sprague-Dawley rats; rHuEPO for approximately one week prior to carboplatin application,prevention (or reversal) of the carboplatin-induced anemia
same,changes in tumor growth,[2],no changes in tumor growth
